Data reported in patent US20240124510A1, “Cyclic Glycoaminoacid Derivatives” (TFCHEM, priority 2021, published 2024).
“And” between values parts separate entries of the source, which are not always exact repeats. Equal entries are not always repeated.

Assays:
[1] = system: Normal human epidermal keratinocytes (NHEK); experiment: Lipid peroxidation in NHEK under UV stimulation (C11-fluor probe, flow cytometry); assay type: cell-based; conditions: 100 μM, irradiated UVB 300 mJ/cm^2 (+UVA 2.1 J/cm^2)
Description: Normal human epidermal keratinocytes were seeded in 48-well plates and cultured in culture medium for 24 hours and then in assay medium for a further 24 hours. The medium was then removed and replaced by assay medium containing or not (irradiated control) the test compounds or the reference (BHA—butylated hydroxyanisole, lipid peroxidation inhibitor—at 100 μM) and the cells were pre-incubated for 24 hours. After pre-incubation, the specific fluorescent probe for the measurement of lipid peroxides (C11-fluor) was added and the cells were incubated for 45 minutes. Then, the medium was removed and replaced by assay medium containing or not (irradiated control and test compound conditions) the reference and the cells were irradiated with UVB (+UVA)−300 mJ/cm^2 (+2.1 J/cm^2). The lamp used was a SOL500 Sun Simulator equipped with an H2 filter (Dr. Hbnle. AG). After irradiation, the medium was removed and replaced by assay medium containing or not (irradiated control) the test compounds or the reference and the cells were incubated for 30 minutes before flow cytometry analysis. A non-irradiated control condition was performed in parallel. All experimental conditions were performed in triplicate.
At the end of the incubation, in each well, the cells were trypsinized and transferred into specific tubes for the analysis of C11-fluor fluorescence intensity using a BD FACSVerse™ flow cytometer (acquisition of 2000 to 5000 events per tube). The C11-fluor fluorescent probe is a lipid analogue which integrates cell membranes. As the fluorescence intensity of this probe is decreased with oxidation, it is inversely proportional to the lipid peroxidation. In order to facilitate the result interpretation, the lipid peroxidation was expressed using the value “1/fluorescence intensity” in order to have a direct proportionality between the induction of lipid peroxidation and the values of “% of irradiated control”.
Results presented in Table 24 are expressed as fluorescence intensity and as […] of protection compared to the control.

[2] = system: Collagen I fibers; experiment: Quantity of Collagen 1 fibers produced by preadipocytes in inflammatory condition (immunofluorescence); assay type: cell-based, human; conditions: AcMC + 100 nM, normalized by cells number (DAPI)
Description: (§1) Preadipocytes have been isolated from human female hypodermis (body mass index <30 kg/m2 and <45 years old). Preadipocytes have been cultured for 24 h in 100 μl of DMEM-10% Fetal Bovine Serum (FBS) in 96-well plates. Then cells were treated to induce their differentiation in a classical or an inflammatory environment for 13 days.
(§2) To induce the preadipocytes differentiation cells were incubated in a proadipogenic cocktail (PAC) including insulin, glucocorticoid, 3-isobutyl-1-methylxanthine (IBMX), and thiazolinedione in DMEM.
(§3) To induce a fibro-inflammatory environment, cells were treated with an activated human macrophage-conditioned medium (AcMC) prepared in RPMI medium. A treatment with Dexamethasone (DXM) at 100 nM was used as anti-inflammatory response control. At D0: preadipocytes have been treated in the following conditions: • “Undifferentiation”: DMEM+¼ RPMI medium • “Differentiation”: PAC+¼ RPMI medium • “AcMC” i.e. inflammatory condition: PAC+¼ AcMC • “AcMC+DXM”: PAC+[…] AcMC+anti-inflammatory DXM at 100 nM • “AcMc+compounds”: PAC+14 AcMC+compounds to be tested
One month after fixation of preadipocytes cultivated in pro-inflammatory environment, cells were incubated with 3% Bovine Serum Albumin (BSA) for 30 min in order to block the non-specific sites, then with primary antibody anti-collagen 1 (Novusbio, NB600-408) over-night. After washes with PBS, cells were incubated for 30 min with 3% BSA and then with the secondary antibodies (Goat anti-rabbit alexa-fluor 488, ThermoFisher, A11008) and DAPI (for nuclei staining) for 1 h. After several washes, the acquisition and the quantification were performed with a fluorescent video-microscope. Briefly, the quantification was based on the detection and quantification of cell nuclei stained with DAPI, and the detection of collagen 1 staining. Collagen 1 fibers were detected and measured for their length, thickness and intensity. A Collagen 1 fibers quantity was calculated (Quantity=length*thickness*fluorescence intensity) and normalized by cells number (DAPI staining).
Collagen I fibers (fibrillar collagen I) quantity was quantified and the data were normalized by cell number (DAPI staining, quantification of nuclei number). Data are represented in percentage of proinflammatory control conditions (AcMC condition).

[3] = system: human preadipocytes; experiment: Total lipid accumulation (AdipoRed staining) in preadipocytes/adipocytes in inflammatory condition; assay type: cell-based; conditions: AcMC + 100 nM, end of the culture
Description: as §1, §2, §3
(§4) All conditions have been performed in triplicate. The medium has been changed every 2 days for 13 days.
After 14 days of culture, preadipocytes have been fixed with 4% paraformaldehyde and then stained by AdipoRed™ at room temperature to reveal the intracellular lipid droplets. Quantification of lipid accumulation has been performed by fluorescence intensity measurements using the spectrophotometer Spark (TECAN).
Lipid accumulation and Lipid index were evaluated for each condition. Data are represented in percentage of proinflammatory control condition (AcMC condition).

[4] = system: IL-6; experiment: Extracellular secretion of IL-6 by preadipocytes in inflammatory condition (ELISA); assay type: cell-based, human
Description: as §1, §2, §3, §4
(§5) At D14: during the last 24 h of culture, the medium has been replaced by DMEM/F12 medium in all conditions, to collect cells' secretions.
(§6) After 13 days, the 24 h culture media of the different conditions have been collected at the end of the treatment period. The concentrations of IL-6, procollagen I and MCP1 have been evaluated by ELISA assays using specific kits (for IL-6: DY206, DuoSet ELISA, R&D Systems; for Procollagen I: DY6220-05, DuoSet ELISA, R&D Systems; for MCP1: DY279-05 DuoSet ELISA, R&D Systems) according to the manufacture's recommendations. Values have been normalized to the cell number determined by DAPI staining.
Quantity of IL-6 secreted in medium was measured and was normalized by cell number in each culture condition. Data are represented in percentage of proinflammatory control condition (AcMC condition).

[5] = system: MCP1; experiment: Extracellular secretion of MCP1 by preadipocytes in inflammatory condition (ELISA); assay type: cell-based, human
Description: as §1, §2, §3, §4, §5, §6
Quantity of MCP1 secreted in medium was measured and was normalized by cell number in each culture condition. Data are represented in percentage of proinflammatory control condition (AcMC condition).

[6] = system: IL-6; experiment: IL-6 secretion in coculture of human aged fibroblasts and mature adipocytes (AM3D-FB2D, ELISA); assay type: cell-based; conditions: for secretion of IL-6 in percentage of the coculture control condition, Mean (%) / secretion of IL-6 in percentage of the coculture control condition, Values (%): 100 nM; for secretion of IL-6 in percentage of the coculture control condition, Values (%): individual replicates; for IL-6 secretion in percentage of the coculture control condition: anti-inflammatory reference item
Source text: In order to evaluate its effect on fibroblast matrix and its anti-inflammatory properties, the effect of compound 6 has been tested on an adipocytes-aged fibroblasts coculture model, mimicking the interactions between dermis and hypodermis in the skin and allowed to explore in parallel the biological effects of the products on two cellular targets.
• Experimental model: co-culture of human mature adipocytes cultured in 3D and human dermal fibroblasts cultured in 2D (AM3D-FB2D co-culture). This experimental model of AM3D-FB2D co-culture mimicked the interactions between dermis and hypodermis in the skin and allowed to explore in parallel the biological effects of the products on two cellular targets. • Donor characteristics: This study was performed on mature adipocytes and fibroblasts from two different donors (one donor for mature adipocytes and another donor for dermal fibroblasts). • Fibroblasts donor=person, BMI=28 kg/m^2 • Adipocytes donor=person, BMI=21.4 kg/m^2 • Treatment procedure: compound 6 was added to the co-culture medium daily for up to 6 days
Dermal fibroblasts were seeded in DMEM 10% FBS at 10000 cells/well. The day after, the adipocytes capsules of 50 μl were added in suspension above the fibroblasts and the medium was changed and replaced by a specific culture medium for the co-culture AM3D-FB2D. The formation of adipocytes capsules followed an internal standardized protocol. Briefly, the fully mature adipocytes were isolated from the hypodermis after digestion by collagenase. The isolated adipocytes were then washed with a wash buffer and encapsulated in a peptidic hydrogel to form 3D adipocytes capsules of 50 μl in size. Cells were incubated at 37° C. and 5% CO2 overnight for stabilization. Treatments were initiated at DO with a medium change at DO, D2, D3 and D5. The entire culture media of 24 h incubation was collected at D3 and D6, before being centrifugated and stored at −80° C. Each culture condition was done in triplicate.
The biochemical analyses on culture media were performed via ELISA using specific kits according to the manufacturer's recommendations: IL-6 (Duoset DY206, R&D Systems), and Hyaluronic Acid (HA) (Duoset, DY3614-05, R&D Systems and Procollagen I (Duoset, DY6220-05, R&D Systems) The results of HA and Procollagen I were normalized by fibroblasts cell number regarding the fact that these molecules were secreted mainly by fibroblasts. All the biochemical results were represented in percentage of the control condition.
To evaluate the effect of the compound 6 on inflammation, the extracellular concentrations of IL-6, that is secreted by the fibroblasts but mainly by the adipocytes, were measured at D3 and D6.

[7] = AcMC + 100 nM, normalized by cells number (DAPI)
[8] = AcMC + 100 nM, normalized by cells number (DAPI), individual values

COc1ccc(O)c(C(C)(C)C)c1 [BHA, Butylated hydroxyanisole, reference compound]
% Irradiated control (lipid peroxidation) [1]: 31%
% Protection (lipid peroxidation) [1]: 75%
C11-fluor 1/GMFI Mean (AU) [1]: 2.7E−04 AU
C11-fluor 1/GMFI (AU) ([1]; individual replicates): 1.90E−04 AU and 2.74E−04 AU and 3.37E−04 AU
C11-fluor GMFI (AU) ([1]; individual replicates): 5266 AU and 3653 AU and 2965 AU

C[C@@H]1C[C@H]2[C@@H]3CCC4=CC(=O)C=C[C@]4(C)[C@@]3(F)[C@@H](O)C[C@]2(C)[C@@]1(O)C(=O)CO [Dexamethasone, reference compound]
Collagen I fibers quantity, Mean (%) [2]: 391 % of AcMC condition
Collagen I fibers quantity, Values (%) ([2]; individual values): 397.3 % of AcMC condition and 390.0 % of AcMC condition and 384.5 % of AcMC condition
Total Lipid Accumulation (Adipored staining), Mean [3]: 220.6 % of AcMC condition
Total Lipid Accumulation (Adipored staining), Values ([3]; individual values): 213.8 % of AcMC condition and 229.4 % of AcMC condition and 218.6 % of AcMC condition
IL-6 secretion, Mean [4, 7]: 22.8 % of AcMC condition
IL-6 secretion, Values [4, 8]: 21.9 % of AcMC condition and 21.8 % of AcMC condition and 24.5 % of AcMC condition
IL-6 secreted, normalized by cell number, in % of AcMC condition ([4]; preadipocytes/adipocytes, AcMC, 100 nM): 22.8%
MCP1 secretion, Mean (%) [5, 7]: 95 % of AcMC condition
MCP1 secretion, Values (%) [5, 8]: 82.4 % of AcMC condition and 106.8 % of AcMC condition and 97.2 % of AcMC condition
Effect on the MCP1 secretion ([5]; AcMC, DXM at 100 nM): no effect
secretion of IL-6 in percentage of the coculture control condition, Mean (%) ([6]; D3): 34%
secretion of IL-6 in percentage of the coculture control condition, Values (%) ([6]; D3): 22% and 48% and 31%
secretion of IL-6 in percentage of the coculture control condition, Mean (%) ([6]; D6): 41%
secretion of IL-6 in percentage of the coculture control condition, Values (%) ([6]; D6): 39% and 24% and 61%
IL-6 secretion in percentage of the coculture control condition ([6]; 3 days of treatment): 34%
IL-6 secretion in percentage of the coculture control condition ([6]; 6 days of treatment): 41%
